Measurements published in ChEMBL document CHEMBL3885881, “DrugMatrix”.

Species: Rattus norvegicus
Test: DrugMatrix - Regimen: Daily Repeat
Type: toxicity, organism-based, Sprague-Dawley
Parameters: regimen Daily Repeat, gender Male, age 6-8 weeks
Conditions: in vivo, po, route oral GAVAGE, […]; for ABSOLUTE BASOPHIL / ABSOLUTE EOSINOPHIL / ABSOLUTE LYMPHOCYTE / ABSOLUTE MONOCYTE / ABSOLUTE SEGMENTED NEUTROPHIL / BASOPHIL / EOSINOPHIL / ERYTHROCYTE COUNT / HEMATOCRIT / HEMOGLOBIN / LEUKOCYTE COUNT / LYMPHOCYTE / MEAN CORPUSCULAR HEMOGLOBIN / MEAN CORPUSCULAR HEMOGLOBIN CONCENTRATION / MONOCYTE / NEUTROPHIL / NUCLEATED RED BLOOD CELLS / PLATELET COUNT: tissue Blood; for ALANINE AMINOTRANSFERASE / ALBUMIN / ALKALINE PHOSPHATASE / ASPARTATE AMINOTRANSFERASE / BLOOD UREA NITROGEN / CARBON DIOXIDE / CHLORIDE / CHOLESTEROL / CREATINE PHOSPHOKINASE / CREATININE / GLUCOSE / LACTATE DEHYDROGENASE / LIPASE / PHOSPHORUS / POTASSIUM / SODIUM / TOTAL BILIRUBIN / TOTAL PROTEIN / URIC ACID: tissue Plasma
[1] = 0 mg/kg, 72 h, dose level Control, time 3 day
[2] = 0 mg/kg, 120 h, dose level Control, time 5 day
[3] = 0.2 mg/kg, 72 h, dose level Low, time 3 day

## CCOC(=O)C1=C(COCCN)NC(C)=C(C(=O)OC)C1c1ccccc1Cl (stereo not given) [AMLODIPINE]
[1]
  ABSOLUTE BASOPHIL: 0 CELLS/uL
  ABSOLUTE EOSINOPHIL: 70.67 CELLS/uL
  ABSOLUTE LYMPHOCYTE: 12761.5 CELLS/uL
  ABSOLUTE MONOCYTE: 214.17 CELLS/uL
  ABSOLUTE SEGMENTED NEUTROPHIL: 987 CELLS/uL
  BASOPHIL: 0%
  EOSINOPHIL: 0.5%
  ERYTHROCYTE COUNT: 5.61 x10E6/uL
  HEMATOCRIT: 35.22%
  HEMOGLOBIN: 13.57 G/DL
  LEUKOCYTE COUNT: 14.03 x10E3/uL
  LYMPHOCYTE: 91%
  MEAN CORPUSCULAR HEMOGLOBIN: 24.25 pg
  MEAN CORPUSCULAR HEMOGLOBIN CONCENTRATION: 38.52 G/DL
  MONOCYTE: 1.5%
  NEUTROPHIL: 7%
  NUCLEATED RED BLOOD CELLS: 0 /100WBC
  PLATELET COUNT: 997.5 x10E3/uL
  ALANINE AMINOTRANSFERASE: 66.5 u/L
  ALBUMIN: 3.98 G/DL
  ALKALINE PHOSPHATASE: 350 u/L
  ASPARTATE AMINOTRANSFERASE: 83.83 u/L
  BLOOD UREA NITROGEN: 12.33 mg/dL
  CARBON DIOXIDE: 30.33 mmol/L
  CHLORIDE: 100 MEQ/L
  CHOLESTEROL: 75 mg/dL
  CREATINE PHOSPHOKINASE: 200 u/L
  CREATININE: 0.17 mg/dL
  GLUCOSE: 170 mg/dL
  LACTATE DEHYDROGENASE: 89.33 u/L
  LIPASE: 10.33 u/L
  PHOSPHORUS: 10.88 mg/dL
  POTASSIUM: 6.13 MEQ/L
  SODIUM: 140.53 MEQ/L
  TOTAL BILIRUBIN: 0.2 mg/dL
  TOTAL PROTEIN: 5.67 G/DL
  URIC ACID: 1.6 mg/dL
[2]
  ABSOLUTE BASOPHIL: 0 CELLS/uL
  ABSOLUTE EOSINOPHIL: 0 CELLS/uL
  ABSOLUTE LYMPHOCYTE: 9526.67 CELLS/uL
  ABSOLUTE MONOCYTE: 134.17 CELLS/uL
  ABSOLUTE SEGMENTED NEUTROPHIL: 922.5 CELLS/uL
  BASOPHIL: 0%
  EOSINOPHIL: 0%
  ERYTHROCYTE COUNT: 5.58 x10E6/uL
  HEMATOCRIT: 34.78%
  HEMOGLOBIN: 13.5 G/DL
  LEUKOCYTE COUNT: 10.58 x10E3/uL
  LYMPHOCYTE: 90.17%
  MEAN CORPUSCULAR HEMOGLOBIN: 24.27 pg
  MEAN CORPUSCULAR HEMOGLOBIN CONCENTRATION: 38.82 G/DL
  MONOCYTE: 1.17%
  NEUTROPHIL: 8.67%
  NUCLEATED RED BLOOD CELLS: 0.17 /100WBC
  PLATELET COUNT: 807.17 x10E3/uL
  ALANINE AMINOTRANSFERASE: 66.83 u/L
  ALBUMIN: 3.73 G/DL
  ALKALINE PHOSPHATASE: 286.17 u/L
  ASPARTATE AMINOTRANSFERASE: 142.33 u/L
  BLOOD UREA NITROGEN: 14.67 mg/dL
  CARBON DIOXIDE: 25.5 mmol/L
  CHLORIDE: 89.17 MEQ/L
  CHOLESTEROL: 75.17 mg/dL
  CREATINE PHOSPHOKINASE: 310.67 u/L
  CREATININE: 0.2 mg/dL
  GLUCOSE: 153 mg/dL
  LACTATE DEHYDROGENASE: 1594 u/L
  LIPASE: 14.83 u/L
  PHOSPHORUS: 11.28 mg/dL
  POTASSIUM: 8.46 MEQ/L
  SODIUM: 126.88 MEQ/L
  TOTAL BILIRUBIN: 0.37 mg/dL
  TOTAL PROTEIN: 5.53 G/DL
  URIC ACID: 1.52 mg/dL
[3]
  ABSOLUTE BASOPHIL: 0 CELLS/uL
  ABSOLUTE EOSINOPHIL: 0 CELLS/uL
  ABSOLUTE LYMPHOCYTE: 9376 CELLS/uL
  ABSOLUTE MONOCYTE: 215 CELLS/uL
  ABSOLUTE SEGMENTED NEUTROPHIL: 975.67 CELLS/uL
  BASOPHIL: 0%
  EOSINOPHIL: 0%
  ERYTHROCYTE COUNT: 5.44 x10E6/uL
  HEMATOCRIT: 34.4%
  HEMOGLOBIN: 13.67 G/DL
  LEUKOCYTE COUNT: 10.57 x10E3/uL
  LYMPHOCYTE: 88.67%
  MEAN CORPUSCULAR HEMOGLOBIN: 25.13 pg
  MEAN CORPUSCULAR HEMOGLOBIN CONCENTRATION: 39.73 G/DL
  MONOCYTE: 2%
  NEUTROPHIL: 9.33%
  NUCLEATED RED BLOOD CELLS: 0 /100WBC
  PLATELET COUNT: 1115 x10E3/uL
  ALANINE AMINOTRANSFERASE: 74.33 u/L
  ALBUMIN: 4 G/DL
  ALKALINE PHOSPHATASE: 391 u/L
  ASPARTATE AMINOTRANSFERASE: 107.33 u/L
  BLOOD UREA NITROGEN: 11 mg/dL
  CARBON DIOXIDE: 28.67 mmol/L
  CHLORIDE: 100.67 MEQ/L
  CHOLESTEROL: 69.67 mg/dL
  CREATINE PHOSPHOKINASE: 1227 u/L
  CREATININE: 0.14 mg/dL
  GLUCOSE: 178 mg/dL
  LACTATE DEHYDROGENASE: 183 u/L
  LIPASE: 11 u/L
  PHOSPHORUS: 10.73 mg/dL
  POTASSIUM: 5.94 MEQ/L
  SODIUM: 141 MEQ/L
  TOTAL BILIRUBIN: 0.2 mg/dL
  TOTAL PROTEIN: 5.73 G/DL
